Source: patent US20060229321A1, “Rosuvastatin in pre demented states” (priority 2001, published 2006)
Where a name gives a salt, the structure may show the parent alone.

How the values were obtained:
[1] = system: cerebral ischemia caused by middle-cerebral artery occlusion (MCAO); assay: Infarct volume after middle-cerebral artery occlusion (MCAO) in mice; type: in vivo; settings: mouse, subcutaneous 2 or 20 mg/kg for 14 days before MCAO
Text: (§1) The studies were generally carried out according to the methods set forth in M. Endres et al., Stroke protection by 3-hydroxy-3-methylglutaryl (HMG)-CoA reductase inhibitors mediated by endothelial nitric oxide synthase, Proc. Natl. Acad. Sci. USA, 95:8880-8885 (1998). In many cases dementia is known to result from the cumulative neurodegenerative effects of strokes. These can be major strokes or sub-clinical strokes, and result in a heterogeneous group of dementias commonly called vascular dementia (VAD). In this study rosuvastatin protected the brain in mice from cerebral ischemia A mechanism by which rosuvastatin may prevent dementia is by protecting the brain from cerebral ischemia.

eNOS = eNOS expression and activity in mice after subcutaneous rosuvastatin; type: in vivo; settings: mouse, subcutaneous 2 or 20 mg/kg for 14 days
Text: as §1

cholesterol = settings: cited from earlier work
[2] = treatment of hypercholesterolemia; Am J. Med. 2000:108:538-547; cited from earlier work

SMILES	volume of infarct resulting from subsequent cerebral ischemia (MCAO) [1]	activity of eNOS (eNOS)	expression of eNOS (eNOS)	reducing cholesterol in patients versus other HMG-CoA reductase inhibitors (cholesterol)	performance on neuropsychological tests of attention and psychomotor speed [2]
CC(C)c1nc(N(C)S(C)(=O)=O)nc(-c2ccc(F)cc2)c1/C=C/[C@@H](O)C[C@@H](O)CC(=O)O [rosuvastatin, bis[(E)-7-[4-(4-fluorophenyl-6-isopropyl-2-[methyl(methylsulfonyl)amino]pyrimidin-5-yl]-(3R,5S)3,5-dihydroxyhept-6-enoic acid]calcium salt]	reduced	increased	increased	superior	
CC[C@H](C)C(=O)O[C@H]1C[C@@H](C)C=C2C=C[C@H](C)[C@H](CC[C@@H]3C[C@@H](O)CC(=O)O3)[C@H]21 [Lovastatin]					small performance decrements
